In PubChem BioAssay (NCI):
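All cell lines were grown in 96-well plates and treated with compound for 48 hours. TGI: concentration producing complete growth inhibition.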

Tests used:
Test in all cases: NCI tumour cell line growth inhibition, 48 h
HOP-18 NSCLC = system: HOP-18 NSCLC
HCT-15 colon = system: HCT-15 colon
M19-MEL melanoma = system: M19-MEL melanoma
LXFL 529 NSCLC = system: LXFL 529 NSCLC
DLD-1 colon = system: DLD-1 colon
786-0 renal = system: 786-0 renal
KM12 colon = system: KM12 colon
DMS 273 small cell lung = system: DMS 273 small cell lung
LOX IMVI melanoma = system: LOX IMVI melanoma
KM20L2 colon = system: KM20L2 colon
XF 498 CNS = system: XF 498 CNS
SNB-78 CNS = system: SNB-78 CNS
DMS 114 small cell lung = system: DMS 114 small cell lung
RXF-631 renal = system: RXF-631 renal
HS 578T breast = system: HS 578T breast
DU-145 prostate = system: DU-145 prostate

| Structure (SMILES) | TGI (HOP-18 NSCLC) [µM] | TGI (HCT-15 colon) [µM] | TGI (M19-MEL melanoma) [µM] | TGI (LXFL 529 NSCLC) [µM] | TGI (DLD-1 colon) [µM] | TGI (786-0 renal) [µM] | TGI (KM12 colon) [µM] | TGI (DMS 273 small cell lung) [µM] | TGI (LOX IMVI melanoma) [µM] | TGI (KM20L2 colon) [µM] | TGI (XF 498 CNS) [µM] | TGI (SNB-78 CNS) [µM] | TGI (DMS 114 small cell lung) [µM] | TGI (RXF-631 renal) [µM] | TGI (HS 578T breast) [µM] | TGI (DU-145 prostate) [µM] |
| --- | --- | --- | --- | --- | --- | --- | --- | --- | --- | --- | --- | --- | --- | --- | --- | --- |
| Cc1nc2ccccc2c(=O)n1NC(=S)Nc1cccc(Cl)c1 | > 100 | > 100 | > 100 | > 100 | > 100 | > 100 | > 100 | > 100 | > 100 |  |  |  |  |  |  |  |
| Cc1ccc2c(c1)SC(c1cc3c(cc1Br)OCO3)S2 (stereo not given) | > 31.6 | > 31.6 | > 31.6 | > 31.6 | > 31.6 | > 31.6 | > 31.6 | > 31.6 | > 31.6 | > 31.6 | > 100 | > 31.6 | > 31.6 |  |  |  |
| CCCc1c(C(=O)OCC)[nH]c(-c2ccc(-c3[nH]c(C(=O)OCC)c(CCC)c3C(=O)OCC)o2)c1C(=O)OCC | > 100 | > 100 | > 100 | > 100 | > 100 | > 100 | > 100 | > 100 | > 100 | > 100 | > 100 | > 100 | > 100 |  |  |  |
| O=C(Nc1nc2ccccc2n1Cc1ccc(Cl)cc1)NC12CC3CC(CC(C3)C1)C2 | 85.4 | > 100 | > 100 | 72 | > 100 | 58.4 | > 100 | 34.7 | > 100 | > 100 | 53.2 |  | 90.8 |  |  |  |
| CCOC(=O)C(=Cc1cc(OC)ccc1OC)C(=O)OCC | 23.6 | 22 | 17.9 | 12.2 | 21.8 | 14.1 | 19.9 | 14.2 | 19.5 | 17.5 | 23.6 |  | 11.8 | 32.5 |  |  |
| O=C1c2cscc2C(=O)C1(O)O |  | > 100 |  |  |  | > 100 | > 100 |  | > 100 |  |  |  |  |  | > 100 | > 100 |
| CC(C)c1c(O[Si](C(C)C)(C(C)C)C(C)C)c2c3c(ccc4c3c1OC4(C)C)C(C)CC2 (stereo not given) |  | > 100 |  |  |  | > 100 | > 100 |  | > 100 |  |  |  |  |  | > 100 | > 100 |
| COC(=O)c1c2c(c(-c3ccccc3)c3c1-c1nc(Cl)ccc1CC3)CCc1ccc(Cl)nc1-2 | > 100 | > 100 | > 100 | > 100 | > 100 | > 100 | > 100 |  | > 100 | > 100 |  | > 100 |  | > 100 |  |  |
| COc1cc(Br)cc2nc(-c3cccs3)oc12 |  | > 100 |  |  |  | > 100 | > 100 |  | > 100 |  |  |  |  |  | > 68 | > 100 |
| CC(C)[Si](OC1=C(C(=O)N(C)c2ccccc2Cl)CCCC1)(C(C)C)C(C)C |  | 31.2 |  |  |  | 34.6 | 27.5 |  | 30 |  |  |  |  |  | 30.7 | 22.5 |
| CC(C)=C[C@@H]1C[C@H](C)c2c(O)cc(C)c3c2C1=C(C)C(=O)C3=O |  | 29.4 |  |  |  | 36.1 | 31.3 |  | 33.3 |  |  |  |  |  | 41.8 | 28.6 |
| O=C(O)c1nc2ccccc2nc1Nc1ccc(F)cc1 |  | 89.8 |  |  |  | > 100 | > 100 |  | > 100 |  |  |  |  |  | > 100 | > 100 |
| CC1(c2nc3ccccc3[nH]2)CCC(C(N)=O)C(C)(C)O1 (stereo not given) |  | > 100 |  |  |  | > 100 | > 100 |  | > 100 |  |  |  |  |  | > 100 | > 100 |
| CC(=O)c1nc2ccccc2n1CC(=O)c1ccc(Cl)cc1 |  | > 100 |  |  |  | 14.1 | > 100 |  | 12.6 |  |  |  |  |  | > 100 | > 100 |
| CC(C)C1SCc2nc3ccccc3n21 (stereo not given) |  | > 100 |  |  |  | > 100 | 45.5 |  | > 100 |  |  |  |  |  | > 100 | > 100 |
| COc1ccc(/C=C2\SC(c3ccc(OC)cc3)N(NC(=O)Cc3ccccc3)C2=O)cc1 (stereo not given) | > 100 | > 100 | > 100 | > 100 | > 100 | > 100 | > 100 | > 100 | > 100 |  |  |  | > 100 |  |  |  |
| O=C1C[C@@H](Sc2ccccc2)C2(OCCO2)[C@H]2ON3CCC[C@@H]3[C@@H]12 |  | 9.7 |  |  |  | 4.83 | 18.4 |  | 11.8 |  |  |  |  |  | 13.1 | 6.07 |
| S=C(N/N=C(/c1ccccc1)c1ccccn1)Nc1ccc(Cl)cc1 |  | 11.2 |  |  |  | 12.3 | 13.7 |  | 7.49 |  |  |  |  |  | > 78.2 | 11.6 |
| CC1(Br)C(=O)NC(=O)N(C2CC(N=[N+]=[N-])C(CO)O2)C1N=[N+]=[N-] (stereo not given) |  | > 100 | > 100 | > 100 | > 100 | > 100 | > 100 | > 100 | > 100 | > 100 | > 100 | > 100 | > 100 | > 100 |  |  |
